Data as given in EP2875809B1, “Product based on an association of glucomannan and inositol” (Dicofarm Spa, priority 2013, dated 2015).

How the values were obtained:
[1] = OGTT (oral glucose tolerance test): blood glucose levels; type: in vivo; conditions: OGTT 75 g, women with PCOS, treatment twice a day for 3 months
Procedure: (§1) In order to evaluate the effectiveness of this new combination of inositol and glucomannan on blood glucose levels and insulin at baseline and after glucose load curve, it was evaluated the effect in 20 women affected by insulin resistance PCOS and compared with what determined in 2 groups of 10 women each, treated with myo-inositol and glucomannan individually administered.
(§2) The women were divided into 3 groups, each group received the treatment according to the following scheme: • Group A: 20 women treated with 1.5 g of myo-inositol + 2 g of glucomannan, twicea day for 3 months, administered half an hour before meals; • Group B: 10 women treated with 1.5 g myo-inositol, twice a day for 3 months, administered half an hour before meals; • Group C: 10 women treated with a dose of 2 g of glucomannan, twice a day for 3 months, adminisered with main meals.
(§3) In order to determine blood glucose and insulin levels in all samples, OGTT (oral glucose tolerance test) was performed in all women in the early follicular phase of the spontaneous period, or after a progestin-induced, period before starting the treatment and after three months of treatment ([…]) .

[2] = Body mass index evaluation; type: in vivo, women
From the text: as §2
(§4) In addition to the assessment of blood glucose and insulin levels during OGTT, the menstrual cycle trend has been evaluated in all the women: the 3rd month of treatment at the 22nd day of the menstrual cycle a progesterone dosage was performed and, after 3 months of treatment, an evaluation of acne, hirsutism and body mass index was performed.

[3] = Plasma progesterone at the 22nd day of the period; type: in vivo, women
From the text: as §2, §4

[4] = OGTT (oral glucose tolerance test): insulin levels; type: in vivo; set-up: unit not given beside the values; conditions: OGTT 75 g, women with PCOS, treatment twice a day for 3 months
Procedure: as §1, §2, §3

[5] = Menstrual cycle trend (frequency of the period); type: in vivo; conditions: before the treatment, same group of women with PCOS
From the text: as §2, §4

[6] = before treatment, same group of women with PCOS

With `O[C@H]1[C@H](O)[C@@H](O)[C@H](O)[C@@H](O)[C@H]1O` [myo-inositol] as the compound, how does the blood glucose levels ([1]; time 0) read?
The blood glucose levels was 90±4.71.

And the blood glucose levels ([1]; time 30')?
Its blood glucose levels is 130.8±6.56.

What about the blood glucose levels ([1]; time 90') of the same compound?
Its blood glucose levels is 107.2±10.25.

What about the blood glucose levels ([1]; time 120') of the same compound?
The blood glucose levels was 98±6.92.

What about the blood glucose levels ([1]; time 180') of the same compound?
Its blood glucose levels is 91.1±6.15.

And the body mass index ([2]; at the 3rd month of treatment)?
The body mass index was 25 ± 1.3.

And the body mass index [2, 6]?
Its body mass index is 27 ± 0.6.

And the plasma progesterone ([3]; 22nd day of the period during the 3rd month of treatment)?
Its plasma progesterone is 4.2 ± 0.6 ng/mL.

And the plasma progesterone [3, 6]?
Its plasma progesterone is 2.2 ± 0.2 ng/mL.

What about the insulin levels ([4]; time 0) of the same compound?
The insulin levels was 7.6+1.

And the insulin levels ([4]; time 60')?
The insulin levels was 57.5±7.13.

What about the insulin levels ([4]; time 90') of the same compound?
The insulin levels was 48.4±4.81.

What about the insulin levels ([4]; time 120') of the same compound?
Its insulin levels is 40.7±5.57.

What about the insulin levels ([4]; time 180') of the same compound?
The insulin levels was 34±4.89.

What about the “frequency of the period” value [5] of the same compound?
The value was 38 to 42 days.
